Data on 16 molecules can be found in ChEMBL document CHEMBL2069172, “Transition state analogue inhibitors of human methylthioadenosine phosphorylase and bacterial methylthioadenosine/S-adenosylhomocysteine nucleosidase incorporating acyclic ribooxacarbenium ion mimics” (Bioorg Med Chem, 2012).

In assay [1] the target is T1, S-methyl-5'-thioadenosine phosphorylase (Homo sapiens, UniProt Q13126).
T1 sequence (Q13126 whole entry): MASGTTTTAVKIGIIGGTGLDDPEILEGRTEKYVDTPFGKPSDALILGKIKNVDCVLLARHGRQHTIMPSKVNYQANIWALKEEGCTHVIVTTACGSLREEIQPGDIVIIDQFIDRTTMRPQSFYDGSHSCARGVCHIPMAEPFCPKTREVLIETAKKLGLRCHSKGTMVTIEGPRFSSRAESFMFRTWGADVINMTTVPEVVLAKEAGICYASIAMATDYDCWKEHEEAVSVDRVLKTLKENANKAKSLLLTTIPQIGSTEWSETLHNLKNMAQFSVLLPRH
Briefly: Inhibition of human MTAP assessed as reduction in methylthioadenosine phosphorolysis/hydrolysis.

The nature of assay [2]: Inhibition of Neisseria meningitidis MTAN assessed as reduction in methylthioadenosine phosphorolysis/hydrolysi.
Assay [3] can be described thus: Inhibition of Escherichia coli MTAN assessed as reduction in methylthioadenosine phosphorolysis/hydrolysis.
The next assay deals with Escherichia coli. The assay can be described thus: Ratio of Km to Ki for Escherichia coli MTAN assessed as reduction in methylthioadenosine phosphorolysis/hydrolysis.

pKi: −log10 of the molar value.

For `CSCC(CO)NCc1c[nH]c2c(N)ncnc12` (racemic), the pKi (as a rule, the Ki on a negative log10 scale, so that one unit is a factor of ten) in assay [1] was 7.92; in assay [2], 9.10.

For the molecule `CSC[C@H](O)[C@@H](CO)CN(C)Cc1c[nH]c2c(N)ncnc12` (racemic), the results for the pKi in assay [1], in assay [3] and in assay [2] were 6.98, 6.40 and 6.88, respectively.

Turning to `CSC[C@@H](O)CNCc1c[nH]c2c(N)ncnc12`, the pKi in assay [1] was 6.22; in assay [3] it was 7.40; in assay [2], 7.44.

Regarding `CSC[C@H](O)[C@@H](CO)NCc1c[nH]c2c(N)ncnc12`, the pKi in assay [1] is 7.06.

For the molecule `CSCC(CO)(CO)NCc1c[nH]c2c(N)ncnc12`, the pKi was 8.24 in assay [3] and 8.40 in assay [2].

Consider `CSC[C@H](CO)N[C@H](CO)c1c[nH]c2c(N)ncnc12`, for which the results for the pKi in assay [3] and in assay [2] were 5.76 and 7.33, respectively.

Regarding `CSC[C@@H](O)[C@@H](CO)NCc1c[nH]c2c(N)ncnc12`, in assay [1], the pKi is 8.28.

In the case of `CSC[C@@H](CO)NCc1c[nH]c2c(N)ncnc12`, the pKi in assay [1] was 8.36. The Ratio in the assay on Escherichia coli is 1200.

As to `CSC[C@H](CO)NCc1c[nH]c2c(N)ncnc12`, the pKi in assay [1] is 7.47.

Turning to `CSCC(CO)CNCc1c[nH]c2c(N)ncnc12` (racemic), the negative-log Ki (pKi) in assay [1] was 8.00; in assay [3] it was 9.44; in assay [2], 8.92.

For the molecule `CSC[C@@H](CN(C)Cc1c[nH]c2c(N)ncnc12)[C@@H](O)CO` (racemic), the pKi in assay [1] was 7.92; in assay [3], 5.64; in assay [2] it was 7.21. The Ratio with Escherichia coli stood at 19.

Regarding `CSC[C@@H](CNCc1c[nH]c2c(N)ncnc12)[C@@H](O)CO` (racemic), the pKi in assay [1] was 7.47; in assay [3], 8.05; in assay [2], 8.30.

Consider `CSC[C@@H](O)[C@H](CO)NCc1c[nH]c2c(N)ncnc12`, for which the pKi in assay [1] was 7.47.

Regarding `CSC[C@H]1CN(Cc2c[nH]c3c(N)ncnc23)C[C@@H]1O`, the pKi in assay [2] is 9.85.

Regarding `CSC[C@H](O)[C@@H](O)CN(C)Cc1c[nH]c2c(N)ncnc12` (racemic), the pKi was 6.43 in assay [1], 6.69 in assay [3] and 7.07 in assay [2].

In the case of `CSC[C@H]1N[C@@H](c2c[nH]c3c(N)ncnc23)[C@H](O)[C@@H]1O`, the pKi in assay [3] is 10.10; in assay [2], 9.44.
